For 63 compounds, melting point results are on record in a melting point compilation (Tetko et al.; mined from patent text by program, amines drawn as free bases though some values may be those of a salt).

Bounds are passed on as bounds.

As a reminder, the melting point is the temperature of the solid-liquid transition. Regarding `CC(C)OCCNS(=O)(=O)NC(=O)OCc1ccccc1`, the melting point lay in the range of 88 to 89 °C. In the case of `CN1CC[C@H](c2ccccc2)[C@H](O)C1` (relative stereo) it was 95 to 97 °C; in that of `O=c1c2cc(Br)ccc2c2cc3c(=O)c4cc(Br)ccc4c3cc12`, greater than 300 °C. In the case of `O=C1Cc2cc(F)c(Cl)cc2N1` it was 196 to 206 °C; in that of `CC1(C)CCC(C(=O)O)c2ccccc21` (stereo not drawn), 80 to 81 °C. The figure for `N#CC1CN1Cc1ccccc1` (stereo not drawn) is 81 to 83 °C; for `CC(C)C[C@@H](/C=C/CCO)NP(=O)(c1ccccc1)c1ccccc1` it is 124 °C; for `N#Cc1c(O)nsc1S(=O)(=O)c1ccccc1` it is 163 to 164 °C. In turn, `CCCCc1oc2ccccc2c1C(=O)Nc1ccc2cc(OCC#N)ccc2c1` displayed a melting point of 122 to 124 °C. `CC(C)(C)Nc1c(NCc2cccc(F)c2)c(=O)c1=O`: the melting point lay in the range of 295 to 297 °C. The compound `Cc1c2ccncc2c(C)c2c1[nH]c1ccc(O)cc12` displayed a melting point of 307 to 309 °C. The figure for `c1ccc(Cn2cc3c(c2)OCCO3)cc1` is 69 to 70 °C; for `O=C(NNC(=O)c1ncnc2[nH]ccc12)OCc1ccccc1` it is 187 to 188 °C; for `CC#CC(O)(Cn1cncn1)c1ccc(Oc2ccc(Cl)cc2)cc1C(F)(F)F` (stereo not drawn) it is 137 °C. As for `CCS(=O)(=O)Nc1cc(-n2c(=O)cc(C(F)(F)F)n(N)c2=O)c(F)cc1C#N`, the melting point came to 190 °C. The figure for `O=C1CCC(=O)N1c1cccc2ccccc12` is 154 °C; for `CCCC(=O)Nc1cc(Sc2ccccc2)ccc1NC(=NC(=O)OC)NC(=O)OC` it is 180 °C. As to `Cc1cc(Cl)c(Nc2ccc(C)cc2CC(=O)O)c(Cl)c1`, the melting point lay within 179 to 182 °C. The compound `COc1cc(OC)c2c(=O)[nH]c(-c3cc(C)c(OCCn4ccnc4)c(C)c3)nc2c1` came in with a melting point of 218 to 219 °C. In the case of `CC(NC(=O)OC(C)(C)C)C(=O)NC1CCN(Cc2ccccc2)C1` (stereo not drawn) it was 83 to 85 °C. In turn, `N#CC1CC(=O)c2cc(F)ccc2O1` (stereo not drawn) showed a melting point of 87 to 89 °C. For the compound `CC(C)Oc1cc(CCCOc2c(CC(=O)O)ccc3ccccc23)n(Cc2ccc(Cl)cc2Cl)n1`, the melting point fell in the range of 96 to 98 °C. The figure for `Nc1cc(OCc2ccccc2)c2ncccc2c1` is 183 to 185 °C; for `N#CC(Cc1ccco1)(Cn1cncn1)c1ccc(Cl)cc1` (stereo not drawn) it is 112 to 114 °C. In the case of `COc1ccc(Oc2c(C)cc(CC(=O)O)cc2C)cc1C(C)C` it was 118 to 120 °C; in that of `O=c1c2c(Cl)cc(Cl)cc2n(Cc2ccccc2)c(=O)n1CCc1ccccc1`, 169 to 171 °C; in that of `CS(=O)(=O)c1ccc(C2=C(Br)C(=O)C3(CCCC3)O2)cc1`, 127 to 128 °C. In the case of `CCOc1nn(Cc2ccc(OCc3coc(-c4ccccc4)n3)cc2)cc1CCC(=O)O` it was 135 to 136 °C; in that of `CCOC(=O)COc1cccc2c1oc1sc(Nc3ccccc3)nc12`, 196 to 198 °C.

`Nc1c(Oc2ccc(F)c(C(F)(F)F)c2)nc(Br)nc1Oc1ccc(F)c(C(F)(F)F)c1`: the melting point lay within 184 to 186 °C. `Cc1ccc(CN[C@H](CO)Cc2ccccc2)cc1` came in with a melting point of 125 to 127 °C. The figure for `COC(=O)C1(C(F)(F)CCCCCOc2ccc(Cl)cc2)CO1` (stereo not drawn) is 54 to 55 °C; for `O=C1Nc2ccc(Cl)cc2C1c1ncnc2c1cnn2C1CCCCC1` (stereo not drawn) it is 300 to 305 °C; for `CN1CCC(OC(c2ccccc2)c2nc3cccc(N)c3[nH]2)CC1` (stereo not drawn) it is 96.7 °C. In the case of `COc1cc(C(C#N)CCC(C#N)c2cc(OC)c(OC)c(OC)c2)cc(OC)c1OC` (stereo not drawn) it was 173 to 174 °C; in that of `COc1ccc(CN(C)CCOc2ccc(NC(=O)c3cc(SC)cc4c(=O)c5ccccc5[nH]c34)cc2)cc1OC`, 170 °C. The figure for `CC(C)NC(=O)NCC(=O)O` is 178 °C. For the compound `CCC(C)(C)c1cc(C(C)(C)CC)c2c(c1)C1(O)C(=O)c3ccccc3C1(O)O2` (stereo not drawn), the melting point was in the range of 195 to 222 °C.

Compound `CCOC(=O)c1ccc(N2CCN(C(=O)N(CC)CC)CC2)cc1` returned a melting point of 77 to 82 °C.

In turn, `Cc1cccc2nc3c(c(N)c12)CCCC3` had a melting point of 143 to 145 °C. In the case of `CC(C)Nc1cccnc1N1CCN(C(=O)c2ccc(C(=O)N(CCO)Cc3ccccc3)cc2)CC1` it was 99 to 101 °C; in that of `CCOCCOC(=O)C1=C(C)NC(C=O)=C(C(=O)OCC)C1c1cccc([N+](=O)[O-])c1` (stereo not drawn), 100 to 101 °C; in that of `CC(C)(C)c1cc(C(=O)CCCCOc2ccc(C(=O)C(=O)O)cc2)cc(C(C)(C)C)c1O`, 144 to 145 °C.

Compound `CCOC(=O)CCc1cccc(C(=O)c2cccc(C(=O)OCC)c2)c1C=CCCCCO` gave a melting point of 48 to 50 °C. In the case of `CCC1C(=O)c2c(cc(OC)c(Cl)c2Cl)C1c1ccccc1` (stereo not drawn) it was 114 to 116 °C; in that of `CCOCc1nc2c(N)nc3ccccc3c2n1CC(C)(C)C(N)=O`, 241 to 243 °C. `FC(F)(F)C(Cc1ccccc1)c1ccccc1` (stereo not drawn) showed a melting point of 58 to 61 °C.

Turning to `COC(=O)CCCc1cc2nc(Cl)ccc2n1S(=O)(=O)c1ccc(N2CCOCC2)cc1`, the melting point was 110 °C. `Nc1ccc(Oc2ccccc2OCc2ccccc2)cc1` registered a melting point of 111 to 112 °C. The figure for `CCCCCCOc1ccc(C(=O)Nc2ccccc2Sc2ccccc2-c2nnn[nH]2)cc1` is 154 to 156 °C; for `CC(=O)N(C(C)=O)c1csc(Br)n1` it is 63 to 65 °C; for `COc1ccc(S(=O)(=O)N(Cc2cccnc2)c2c(C(=O)O)cnc3c2c(C)nn3C)cc1` it is 256 to 258 °C. In the case of `Cc1oc(-c2ccccc2)nc1CCOc1ccc(CC(C(N)=O)C(=O)O)cc1` (stereo not drawn) it was 138 °C; in that of `CCOC(=O)c1ncn2c1C(C)N=C(c1ccccn1)c1cc(Br)ccc1-2` (stereo not drawn), 193 to 195 °C. In the case of `C=CCOc1ccccc1-c1nc2nc(SC)ncc2c(=O)[nH]1` it was 205 to 206 °C; in that of `CC(C)CN(CC(C)C)c1ccc(C(=O)c2ccccc2)cc1N`, 59 to 60 °C; in that of `CCCc1nc2c(N)nc3cc(OCCCN4CCCS4(=O)=O)ccc3c2n1CC(C)C`, 142 to 144 °C. `CS(=O)(=O)c1ccc(-c2cc(C(N)=O)nn2-c2ccc(C(=O)O)cc2)cc1` gave a melting point of 292 to 293 °C. In the case of `CCc1nc2c(cnn2CC)c(NC2CCOCC2)c1CNC(=O)c1cccc(C(=O)NCc2ccc(F)c(-c3cccc(CN4CCN(C(C)C)CC4)c3)c2)c1` it was 165 to 169 °C; in that of `N#CCc1ccc(Nc2nc(OCC3CCCCC3)c3[nH]cnc3n2)cc1`, 191 to 192 °C; in that of `CC(C)Oc1cc(N)ccc1-n1cccc1`, 55 to 57 °C. The compound `Nc1ccc(C(=O)N2Cc3ccccc3CC3=C2C=CC(Cl)C3)cc1` (stereo not drawn) returned a melting point of 211 to 214 °C. Turning to `O=C(O)COc1ccc(-c2cc(O)c(Sc3ccccc3)c(=O)o2)cc1`, the melting point lay in the range of 186 to 188 °C.
